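Test compounds were applied to cells in 96-well plates for 48 hours at 5 doses. GI50: concentration for 50% inhibition of growth.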 Activity calls are given as the source filed them. Cut-off read from the data, not from the text of the source: active = GI50 up to about 1.1 µM and inactive = higher.
Columns and labels:
Assay in all cases: NCI anticancer screen, dose series, 48 h
[1] = system: SW-620
[2] = system: ACHN
[3] = system: K562
[4] = system: PC-3
[5] = system: UO-31
[6] = system: MDA-MB-231
[7] = system: U-251
[8] = system: NCI-H460
[9] = system: SN12C
[10] = system: BT-549
[11] = system: OVCAR-3
[12] = system: DU-145
[13] = system: SF-295
[14] = system: A549
[15] = system: HCT-15
[16] = system: MDA-MB-435
[17] = system: UACC-257
[18] = system: SK-MEL-2
[19] = system: OVCAR-4
[20] = system: MOLT-4
[21] = system: HCC 2998
[22] = system: OVCAR-5
[23] = system: EKVX
[24] = system: MDA-N
[25] = system: MCF7
[26] = system: CAKI-1
[27] = system: 786-0
[28] = system: SF-539
[29] = system: SK-MEL-28
[30] = system: NCI/ADR-RES
[31] = system: Hs-578T
[32] = system: NCI-H23
[33] = system: HOP-62
[34] = system: RXF 393
[35] = system: SK-OV-3
[36] = system: SF-268
[37] = system: HT-29
[38] = system: UACC-62
[39] = system: RPMI-8226
[40] = system: TK-10
[41] = system: SNB-19
[42] = system: HOP-92
[43] = system: COLO 205
[44] = system: OVCAR-8
[45] = system: KM12
[46] = system: SK-MEL-5
[47] = system: M14
[48] = system: HL-60
[49] = system: T47D
[50] = system: NCI-H226
[51] = system: SR
[52] = system: CCRF-CEM
[53] = system: IGROV-1
[54] = system: A498
[55] = system: HCT-116
[56] = system: LOX IMVI
[57] = system: NCI-H522
[58] = system: SNB-75
[59] = system: Malme-3M

For NC(CCC(=O)NC(CSC(=O)N(O)c1ccc(Br)cc1)C(=O)NCC(=O)O)C(=O)O (centres undefined), the GI50 [1] was > 50 µM (inactive), the GI50 [2] was > 50 µM (inactive) and the GI50 [3] was > 50 µM (inactive). The GI50 [4] was > 50 µM (inactive), the GI50 [5] was > 50 µM (inactive) and the GI50 [6] was > 50 µM (inactive). The GI50 [7] was > 50 µM (inactive), the GI50 [8] was > 50 µM (inactive) and the GI50 [9] was > 50 µM (inactive). The GI50 [10] was > 50 µM (inactive), the GI50 [11] was > 50 µM (inactive) and the GI50 [12] was > 50 µM (inactive). The GI50 [13] was > 50 µM (inactive), the GI50 [14] was > 50 µM (inactive) and the GI50 [15] was greater than 50 µM. For the same compound, the GI50 [16] was > 50 µM (inactive), the GI50 [17] was > 50 µM (inactive) and the GI50 [18] was > 50 µM (inactive). The GI50 [19] was > 50 µM (inactive), the GI50 [20] was > 50 µM (inactive) and the GI50 [21] was > 50 µM (inactive). The GI50 [22] was > 50 µM (inactive), the GI50 [23] was > 50 µM (inactive) and the GI50 [24] was > 50 µM (inactive). For the same compound, the GI50 [25] was > 50 µM (inactive), the GI50 [26] was > 50 µM (inactive) and the GI50 [27] was > 50 µM (inactive). The GI50 [28] was > 50 µM (inactive), the GI50 [29] was > 50 µM (inactive) and the GI50 [30] was > 50 µM (inactive). The GI50 [31] was 27.4 µM (inactive), the GI50 [32] was > 50 µM (inactive) and the GI50 [33] was > 50 µM (inactive). For the same compound, the GI50 [34] was > 50 µM (inactive), the GI50 [35] was > 50 µM (inactive) and the GI50 [36] was > 50 µM (inactive). The GI50 [37] was > 50 µM (inactive).

O=C1c2ccc3c4ccc5c6c(ccc(c7ccc(c2c37)C(=O)N1CCN1CCCCC1)c64)C(=O)N(CCN1CCCCC1)C5=O was tested, and the GI50 [1] was > 100 µM (inactive), the GI50 [38] was > 100 µM (inactive) and the GI50 [39] was > 100 µM (inactive). The GI50 [2] was > 100 µM (inactive), the GI50 [3] was > 100 µM (inactive) and the GI50 [40] was > 100 µM (inactive). For the same compound, the GI50 [4] was > 100 µM (inactive), the GI50 [5] was > 100 µM (inactive) and the GI50 [7] was > 100 µM (inactive). The GI50 [41] was > 100 µM (inactive), the GI50 [8] was > 100 µM (inactive) and the GI50 [42] was > 100 µM (inactive). The GI50 [9] was > 100 µM (inactive), the GI50 [43] was > 100 µM (inactive) and the GI50 [44] was > 100 µM (inactive). For the same compound, the GI50 [10] was > 100 µM (inactive), the GI50 [11] was > 100 µM (inactive) and the GI50 [12] was > 100 µM (inactive). For the same compound, the GI50 [45] was > 100 µM (inactive), the GI50 [46] was > 100 µM (inactive) and the GI50 [13] was > 100 µM (inactive). The GI50 [14] was > 100 µM (inactive), the GI50 [15] was greater than 100 µM and the GI50 [47] was > 100 µM (inactive). The GI50 [16] was > 100 µM (inactive), the GI50 [17] was > 100 µM (inactive) and the GI50 [18] was > 100 µM (inactive). For the same compound, the GI50 [19] was > 100 µM (inactive), the GI50 [20] was > 100 µM (inactive) and the GI50 [48] was > 100 µM (inactive). The GI50 [21] was > 100 µM (inactive), the GI50 [22] was > 100 µM (inactive) and the GI50 [23] was > 100 µM (inactive). For the same compound, the GI50 [49] was > 100 µM (inactive), the GI50 [24] was > 100 µM (inactive) and the GI50 [25] was > 100 µM (inactive). For the same compound, the GI50 [26] was > 100 µM (inactive), the GI50 [27] was > 100 µM (inactive) and the GI50 [28] was > 100 µM (inactive). For the same compound, the GI50 [29] was > 100 µM (inactive), the GI50 [30] was > 100 µM (inactive) and the GI50 [50] was > 100 µM (inactive). The GI50 [51] was > 100 µM (inactive), the GI50 [31] was > 100 µM (inactive) and the GI50 [52] was > 100 µM (inactive). The GI50 [32] was > 100 µM (inactive), the GI50 [53] was > 100 µM (inactive) and the GI50 [54] was > 100 µM (inactive). The GI50 [33] was > 100 µM (inactive), the GI50 [55] was > 100 µM (inactive) and the GI50 [34] was > 100 µM (inactive). For the same compound, the GI50 [35] was > 100 µM (inactive), the GI50 [36] was > 100 µM (inactive) and the GI50 [56] was > 100 µM (inactive). The GI50 [37] was > 100 µM (inactive).

CCOP(=O)(OCC)/C(C#N)=C/c1cccn1Cc1ccccc1 was tested, and the GI50 [1] was 25.8 µM (inactive), the GI50 [38] was 19.9 µM (inactive) and the GI50 [2] was 34.4 µM (inactive). For the same compound, the GI50 [3] was 28.2 µM (inactive), the GI50 [40] was 40.9 µM (inactive) and the GI50 [4] was 31.9 µM (inactive). The GI50 [5] was 24.4 µM (inactive), the GI50 [6] was 22.4 µM (inactive) and the GI50 [7] was 22.6 µM (inactive). For the same compound, the GI50 [57] was 23.8 µM (inactive), the GI50 [41] was 44.4 µM (inactive) and the GI50 [8] was 31.9 µM (inactive). The GI50 [42] was 13.5 µM (inactive), the GI50 [9] was 31.1 µM (inactive) and the GI50 [43] was 21.5 µM (inactive). For the same compound, the GI50 [44] was 33.6 µM (inactive), the GI50 [10] was 32.3 µM (inactive) and the GI50 [11] was 40.6 µM (inactive). For the same compound, the GI50 [58] was 39.9 µM (inactive), the GI50 [12] was 43.2 µM (inactive) and the GI50 [45] was 26.9 µM (inactive). For the same compound, the GI50 [46] was 16.1 µM (inactive), the GI50 [13] was 29.6 µM (inactive) and the GI50 [14] was 34.8 µM (inactive). The GI50 [15] was 29 µM, the GI50 [47] was 48.1 µM (inactive) and the GI50 [16] was 19.4 µM (inactive). For the same compound, the GI50 [17] was 39.5 µM (inactive), the GI50 [18] was 21.3 µM (inactive) and the GI50 [20] was 17.2 µM (inactive). The GI50 [21] was 35.3 µM (inactive), the GI50 [22] was 83.2 µM (inactive) and the GI50 [23] was 38 µM (inactive). The GI50 [49] was 16.9 µM (inactive), the GI50 [24] was 29.9 µM (inactive) and the GI50 [25] was 29.5 µM (inactive). For the same compound, the GI50 [26] was 42.2 µM (inactive), the GI50 [27] was 26.1 µM (inactive) and the GI50 [28] was 18.5 µM (inactive). For the same compound, the GI50 [29] was 19.7 µM (inactive), the GI50 [30] was 26.2 µM (inactive) and the GI50 [50] was 20.7 µM (inactive). For the same compound, the GI50 [51] was 31.3 µM (inactive), the GI50 [52] was 27.2 µM (inactive) and the GI50 [32] was 31.3 µM (inactive). For the same compound, the GI50 [59] was 32.3 µM (inactive), the GI50 [53] was 26.1 µM (inactive) and the GI50 [54] was 34.3 µM (inactive). For the same compound, the GI50 [33] was 40 µM (inactive), the GI50 [55] was 17 µM (inactive) and the GI50 [34] was 30.8 µM (inactive). The GI50 [35] was 53 µM (inactive), the GI50 [36] was 43.5 µM (inactive) and the GI50 [56] was 20.8 µM (inactive). The GI50 [37] was 32.7 µM (inactive).

CC(=O)Nc1ccc(/C=C/C(=O)N2CC(CCl)c3c2cc(N)c2ccccc32)cc1 (centres undefined) was tested, and the GI50 [1] was < 0.005 µM (active), the GI50 [38] was < 0.005 µM (active) and the GI50 [39] was 0.0149 µM (active). For the same compound, the GI50 [2] was < 0.005 µM (active), the GI50 [3] was 0.0211 µM (active) and the GI50 [40] was < 0.005 µM (active). For the same compound, the GI50 [4] was < 0.005 µM (active), the GI50 [5] was < 0.005 µM (active) and the GI50 [6] was < 0.005 µM (active). The GI50 [7] was < 0.005 µM (active), the GI50 [57] was < 0.005 µM (active) and the GI50 [41] was < 0.005 µM (active). For the same compound, the GI50 [8] was < 0.005 µM (active), the GI50 [42] was < 0.005 µM (active) and the GI50 [9] was < 0.005 µM (active). For the same compound, the GI50 [43] was 0.00893 µM (active), the GI50 [44] was < 0.005 µM (active) and the GI50 [10] was 0.00624 µM (active). For the same compound, the GI50 [11] was 0.0127 µM (active), the GI50 [58] was 0.01 µM (active) and the GI50 [12] was < 0.005 µM (active). The GI50 [45] was 0.0064 µM (active), the GI50 [46] was < 0.005 µM (active) and the GI50 [13] was < 0.005 µM (active). The GI50 [14] was < 0.005 µM (active), the GI50 [15] was less than 0.005 µM and the GI50 [47] was < 0.005 µM (active). The GI50 [16] was 0.00767 µM (active), the GI50 [17] was 0.0156 µM (active) and the GI50 [18] was < 0.005 µM (active). For the same compound, the GI50 [19] was 0.0226 µM (active), the GI50 [20] was < 0.005 µM (active) and the GI50 [21] was < 0.005 µM (active). The GI50 [22] was < 0.005 µM (active), the GI50 [23] was 0.01 µM (active) and the GI50 [49] was 0.01 µM (active). The GI50 [24] was 0.00553 µM (active), the GI50 [25] was < 0.005 µM (active) and the GI50 [26] was < 0.005 µM (active). For the same compound, the GI50 [27] was < 0.005 µM (active), the GI50 [28] was < 0.005 µM (active) and the GI50 [29] was 0.00641 µM (active). For the same compound, the GI50 [30] was < 0.005 µM (active), the GI50 [50] was < 0.005 µM (active) and the GI50 [51] was < 0.005 µM (active). The GI50 [52] was < 0.005 µM (active), the GI50 [32] was < 0.005 µM (active) and the GI50 [59] was < 0.005 µM (active). The GI50 [53] was < 0.005 µM (active), the GI50 [54] was < 0.005 µM (active) and the GI50 [33] was < 0.005 µM (active). The GI50 [55] was < 0.005 µM (active), the GI50 [34] was < 0.005 µM (active) and the GI50 [35] was 0.0091 µM (active). The GI50 [36] was < 0.005 µM (active), the GI50 [56] was < 0.005 µM (active) and the GI50 [37] was < 0.005 µM (active).
